Experimental data taken from US6534446B1, “Method to mitigate plant stress” (Emerald BioAgriculture Corporation, priority 1994, dated 2003).

Columns and labels:
Format in all cases: in vivo
[1] = test system: Roundup Ready cotton seeds; assay: Cold-induced inhibition of cotton seed germination; settings: for number of cotton seeds germinated / Fresh Wt.: 300 ppm each component; for Fresh Wt.: seedlings harvested 17 days after planting
cabbage plants = assay: Heat stress in cabbage, fresh weight; settings: CaNO3 2500 ppm alone
Duckweed = assay: Copper salt stress in duckweed, dry weight; settings: fifteen days of growth

SMILES | number of cotton seeds germinated ([1]; 5 days after planting, 59° F. (15° C.)/50° F. (10° C.), 45 seeds) | number of cotton seeds germinated ([1]; 5 days after planting, 75° F. (24° C.), 45 seeds per treatment) | number of cotton seeds germinated ([1]; 7 days after planting, 59° F. (15° C.)/50° F. (10° C.), 45 seeds) | number of cotton seeds germinated ([1]; 7 days after planting, 75° F. (24° C.), 45 seeds) | number of cotton seeds germinated ([1]; 9 days after planting, 59° F. (15° C.)/50° F. (10° C.), 45 seeds) | number of cotton seeds germinated ([1]; 9 days after planting, 75° F. (24° C.), 45 seeds) | seeds germinated, % of all seeds ([1]; 9 days after planting, low temperatures, 45 seeds per treatment) | number of cotton seeds germinated ([1]; 13 days after planting, 59° F. (15° C.)/50° F. (10° C.), 45 seeds) | number of cotton seeds germinated ([1]; 13 days after planting, 75° F. (24° C.), 45 seeds) | number of cotton seeds germinated ([1]; 17 days after planting, 59° F. (15° C.)/50° F. (10° C.), 45 seeds) | number of cotton seeds germinated ([1]; 17 days after planting, 75° F. (24° C.), 45 seeds) | Fresh Wt. ([1]; 59° F. (15° C.)/50° F. (10° C.)) | Fresh Wt. ([1]; 75° F. (24° C.)) | Mean Fresh Weight (g) ± SD (cabbage plants; oven at 48° C. (118° F.) for twelve hours, weighed one week later) | % of Room Temperature Control (cabbage plants; oven at 48° C. for twelve hours) | Average Dry Weight (mg) ± SD (Duckweed; Copper 1.7 ppm) | % Change From Control (Duckweed; Copper 3.3 ppm) | Average Dry Weight (mg) ± SD (Duckweed; Copper 3.3 ppm)
O=[N+]([O-])[O-].O=[N+]([O-])[O-].[Ca+2] [CaNO3, calcium nitrate] | 0 | 9 | 0 | 38 | 6 | 41 | 13% | 23 | 42 | 31 | 43 | 4.01 g | 8.70 g | 28.8 ± 5.6 g | 77% | – | – | –
O.O.O.O.O.O=S(=O)([O-])[O-].[Cu+2] [Copper, CuSo4SH2O] | – | – | – | – | – | – | – | – | – | – | – | – | – | – | – | 18.0 ± 4.7 mg | −70% | 8.3 ± 0.7 mg
